Converted amounts (≈) assume the structure as drawn.
Columns and labels:
Format in all cases: functional
[1] = tested on: Klebsiella pneumoniae; assay: Antimicrobial activity against Klebsiella pneumoniae MTCC 109 assessed as growth inhibition after 24 hr by agar streak dilution method; details: MTCC 109, 24 h
[2] = tested on: Candida albicans; assay: Antimicrobial activity against Candida albicans MTCC 183 assessed as diameter of growth inhibition zone after 48 hr
[3] = tested on: Aspergillus clavatus; assay: Antimicrobial activity against Aspergillus clavatus MTCC 1323 assessed as growth inhibition after 48 hr by agar streak dilution method; details: MTCC 1323, 48 h
[4] = tested on: Klebsiella pneumoniae; assay: Antimicrobial activity against Klebsiella pneumoniae MTCC 109 assessed as diameter of growth inhibition zone after 24 hr
[5] = tested on: Escherichia coli; assay: Antimicrobial activity against Escherichia coli MTCC 739 assessed as diameter of growth inhibition zone after 24 hr
[6] = tested on: Aspergillus fumigatus; assay: Antimicrobial activity against Aspergillus fumigatus MTCC 343 assessed as growth inhibition after 48 hr by agar streak dilution method; details: MTCC 343, 48 h
[7] = tested on: Aspergillus niger; assay: Antimicrobial activity against Aspergillus niger MTCC 282 assessed as diameter of growth inhibition zone after 48 hr
[8] = tested on: Staphylococcus aureus; assay: Antimicrobial activity against Staphylococcus aureus MTCC 96 assessed as diameter of growth inhibition zone after 24 hr
[9] = tested on: Bacillus cereus; assay: Antimicrobial activity against Bacillus cereus MTCC 430 assessed as diameter of growth inhibition zone after 24 hr
[10] = tested on: Pseudomonas aeruginosa; assay: Antimicrobial activity against Pseudomonas aeruginosa MTCC 741 assessed as growth inhibition after 24 hr by agar streak dilution method; details: MTCC 741, 24 h
[11] = tested on: Aspergillus fumigatus; assay: Antimicrobial activity against Aspergillus fumigatus MTCC 343 assessed as diameter of growth inhibition zone after 48 hr
[12] = tested on: Salmonella typhi; assay: Antimicrobial activity against Salmonella enterica subsp. enterica serovar Typhi MTCC 733 assessed as diameter of growth inhibition zone after 24 hr
[13] = tested on: Staphylococcus aureus; assay: Antimicrobial activity against Staphylococcus aureus MTCC 96 assessed as growth inhibition after 24 hr by agar streak dilution method; details: MTCC 96, 24 h
[14] = tested on: Shigella flexneri; assay: Antimicrobial activity against Shigella flexneri MTCC1457 assessed as diameter of growth inhibition zone after 24 hr
[15] = tested on: Proteus vulgaris; assay: Antimicrobial activity against Proteus vulgaris MTCC 1771 assessed as growth inhibition after 24 hr by agar streak dilution method; details: MTCC 1771, 24 h
[16] = tested on: Aspergillus clavatus; assay: Antimicrobial activity against Aspergillus clavatus MTCC 1323 assessed as diameter of growth inhibition zone after 48 hr
[17] = tested on: Candida albicans; assay: Antimicrobial activity against Candida albicans MTCC 183 assessed as growth inhibition after 48 hr by agar streak dilution method; details: MTCC 183, 48 h
[18] = tested on: Proteus vulgaris; assay: Antimicrobial activity against Proteus vulgaris MTCC 1771 assessed as diameter of growth inhibition zone after 24 hr
[19] = tested on: Pseudomonas aeruginosa; assay: Antimicrobial activity against Pseudomonas aeruginosa MTCC 741 assessed as diameter of growth inhibition zone after 24 hr
[20] = tested on: Mycobacterium tuberculosis; assay: Antituberculosis activity against Mycobacterium tuberculosis H37Rv assessed as growth inhibition after 12 to 28 days by L-J MIC method; details: for MIC: Mycobacterium tuberculosis, H37Rv
[21] = tested on: Salmonella typhi; assay: Antimicrobial activity against Salmonella enterica subsp. enterica serovar Typhi MTCC 733 assessed as growth inhibition after 24 hr by agar streak dilution method; details: MTCC 733, 24 h
[22] = tested on: Shigella flexneri; assay: Antimicrobial activity against Shigella flexneri MTCC1457 assessed as growth inhibition after 24 hr by agar streak dilution method; details: MTCC1457, 24 h
[23] = tested on: Escherichia coli; assay: Antimicrobial activity against Escherichia coli MTCC 739 assessed as growth inhibition after 24 hr by agar streak dilution method; details: MTCC 739, 24 h
[24] = tested on: Bacillus cereus; assay: Antimicrobial activity against Bacillus cereus MTCC 430 assessed as growth inhibition after 24 hr by agar streak dilution method; details: MTCC 430, 24 h
[25] = tested on: Aspergillus niger; assay: Antimicrobial activity against Aspergillus niger MTCC 282 assessed as growth inhibition after 48 hr by agar streak dilution method; details: MTCC 282, 48 h

SMILES | MIC [1] | diameter of the inhibition zone (DIZ) [2] | MIC [3] | diameter of the inhibition zone (DIZ) [4] | diameter of the inhibition zone (DIZ) [5] | MIC [6] | diameter of the inhibition zone (DIZ) [7] | diameter of the inhibition zone (DIZ) [8] | diameter of the inhibition zone (DIZ) [9] | MIC [10] | diameter of the inhibition zone (DIZ) [11] | diameter of the inhibition zone (DIZ) [12] | MIC [13] | diameter of the inhibition zone (DIZ) [14] | MIC [15] | diameter of the inhibition zone (DIZ) [16] | MIC [17] | diameter of the inhibition zone (DIZ) [18] | diameter of the inhibition zone (DIZ) [19] | growth inhibition (GI) [20] | other results
N#Cc1c(-c2ccccc2)cc(-c2ccc(Nc3cc(=O)oc4ccccc34)cc2)nc1N | 25 µg/mL (≈ 58.1 µM) | 19 mm | 12.5 µg/mL (≈ 29 µM) | 21 mm | 19 mm | 25 µg/mL (≈ 58.1 µM) | 21 mm | 17 mm | 19 mm | 50 µg/mL (≈ 116 µM) | 21 mm | 23 mm | 50 µg/mL (≈ 116 µM) | 17 mm | 25 µg/mL (≈ 58.1 µM) | 23 mm | 25 µg/mL (≈ 58.1 µM) | 19 mm | 18 mm | 96% | MIC [20]: 500 µg/mL (≈ 1160 µM); MIC [21]: 12.5 µg/mL (≈ 29 µM); MIC [22]: 50 µg/mL (≈ 116 µM); MIC [23]: 50 µg/mL (≈ 116 µM); MIC [24]: 50 µg/mL (≈ 116 µM); MIC [25]: 25 µg/mL (≈ 58.1 µM)
COc1ccc(-c2cc(-c3ccc(Nc4cc(=O)oc5ccccc45)cc3)nc(N)c2C#N)cc1 | 12.5 µg/mL (≈ 27.1 µM) | 25 mm | 6.25 µg/mL (≈ 13.6 µM) | 22 mm | 28 mm | 12.5 µg/mL (≈ 27.1 µM) | 25 mm | 27 mm | 27 mm | 6.25 µg/mL (≈ 13.6 µM) | 21 mm | 22 mm | 6.25 µg/mL (≈ 13.6 µM) | 24 mm | 6.25 µg/mL (≈ 13.6 µM) | 25 mm | 12.5 µg/mL (≈ 27.1 µM) | 26 mm | 25 mm | 96% | MIC [20]: 62.5 µg/mL (≈ 136 µM); MIC [21]: 12.5 µg/mL (≈ 27.1 µM); MIC [22]: 12.5 µg/mL (≈ 27.1 µM); MIC [23]: 3.12 µg/mL (≈ 6.78 µM); MIC [24]: 6.25 µg/mL (≈ 13.6 µM); MIC [25]: 12.5 µg/mL (≈ 27.1 µM)
O=C(/C=C/c1ccc(Cl)cc1)c1ccc(Nc2cc(=O)oc3ccccc23)cc1 | 50 µg/mL (≈ 124 µM) | 15 mm | 100 µg/mL (≈ 249 µM) | 20 mm | 12 mm | 100 µg/mL (≈ 249 µM) | 12 mm | 18 mm | 14 mm | 100 µg/mL (≈ 249 µM) | 14 mm | 15 mm | 50 µg/mL (≈ 124 µM) | 18 mm | 100 µg/mL (≈ 249 µM) | 14 mm | 100 µg/mL (≈ 249 µM) | 17 mm | 10 mm | 95% | MIC [20]: 1000 µg/mL (≈ 2490 µM); MIC [21]: 100 µg/mL (≈ 249 µM); MIC [22]: 50 µg/mL (≈ 124 µM); MIC [23]: 100 µg/mL (≈ 249 µM); MIC [24]: 100 µg/mL (≈ 249 µM); MIC [25]: 100 µg/mL (≈ 249 µM)
Nc1nc(-c2ccc(Nc3cc(=O)oc4ccccc34)cc2)cc(-c2ccc(Cl)cc2Cl)n1 | 25 µg/mL (≈ 52.6 µM) | 21 mm | 50 µg/mL (≈ 105 µM) | 21 mm | 19 mm | 12.5 µg/mL (≈ 26.3 µM) | 20 mm | 24 mm | 22 mm | 25 µg/mL (≈ 52.6 µM) | 22 mm | 20 mm | 12.5 µg/mL (≈ 26.3 µM) | 21 mm | 6.25 µg/mL (≈ 13.1 µM) | 19 mm | 25 µg/mL (≈ 52.6 µM) | 25 mm | 22 mm | 98% | MIC [20]: 200 µg/mL (≈ 421 µM); MIC [21]: 25 µg/mL (≈ 52.6 µM); MIC [22]: 25 µg/mL (≈ 52.6 µM); MIC [23]: 50 µg/mL (≈ 105 µM); MIC [24]: 12.5 µg/mL (≈ 26.3 µM); MIC [25]: 25 µg/mL (≈ 52.6 µM)
O=C(/C=C/c1ccccc1O)c1ccc(Nc2cc(=O)oc3ccccc23)cc1 | 50 µg/mL (≈ 130 µM) | 13 mm | 100 µg/mL (≈ 261 µM) | 19 mm | 14 mm | 50 µg/mL (≈ 130 µM) | 16 mm | 15 mm | 13 mm | 100 µg/mL (≈ 261 µM) | 17 mm | 13 mm | 100 µg/mL (≈ 261 µM) | 13 mm | 100 µg/mL (≈ 261 µM) | 11 mm | 100 µg/mL (≈ 261 µM) | 15 mm | 15 mm | 97% | MIC [20]: 500 µg/mL (≈ 1300 µM); MIC [21]: 100 µg/mL (≈ 261 µM); MIC [22]: 100 µg/mL (≈ 261 µM); MIC [23]: 100 µg/mL (≈ 261 µM); MIC [24]: 100 µg/mL (≈ 261 µM); MIC [25]: 100 µg/mL (≈ 261 µM)
Nc1nc(-c2ccc(F)cc2)cc(-c2ccc(Nc3cc(=O)oc4ccccc34)cc2)n1 | 3.12 µg/mL (≈ 7.35 µM) | 20 mm | 6.25 µg/mL (≈ 14.7 µM) | 28 mm | 25 mm | 6.25 µg/mL (≈ 14.7 µM) | 22 mm | 24 mm | 23 mm | 12.5 µg/mL (≈ 29.5 µM) | 27 mm | 23 mm | 12.5 µg/mL (≈ 29.5 µM) | 21 mm | 6.25 µg/mL (≈ 14.7 µM) | 26 mm | 25 µg/mL (≈ 58.9 µM) | 25 mm | 24 mm | 99% | MIC [20]: 62.5 µg/mL (≈ 147 µM); MIC [21]: 12.5 µg/mL (≈ 29.5 µM); MIC [22]: 12.5 µg/mL (≈ 29.5 µM); MIC [23]: 6.25 µg/mL (≈ 14.7 µM); MIC [24]: 12.5 µg/mL (≈ 29.5 µM); MIC [25]: 12.5 µg/mL (≈ 29.5 µM)

Source: ChEMBL document CHEMBL3045446, “In vitro antimicrobial and antimycobacterial activity of some chalcones and their derivatives” (2013)
